Measurements reported in ChEMBL document CHEMBL3885881, “DrugMatrix”.

Species on record: Rattus norvegicus
Test: DrugMatrix - Regimen: Daily Repeat
Assay type: toxicity, organism-based, Sprague-Dawley
Set-up: regimen Daily Repeat, gender Male, age 6-8 weeks
Conditions: in vivo, po, route oral GAVAGE, vehicle .5 % CMC; for ABSOLUTE BASOPHIL / ABSOLUTE EOSINOPHIL / ABSOLUTE LYMPHOCYTE / ABSOLUTE MONOCYTE / ABSOLUTE SEGMENTED NEUTROPHIL / BASOPHIL / EOSINOPHIL / ERYTHROCYTE COUNT / HEMATOCRIT / HEMOGLOBIN / LEUKOCYTE COUNT / LYMPHOCYTE / MEAN CORPUSCULAR HEMOGLOBIN / MEAN CORPUSCULAR HEMOGLOBIN CONCENTRATION / MEAN CORPUSCULAR VOLUME / MONOCYTE / NEUTROPHIL / NUCLEATED RED BLOOD CELLS / PLATELET COUNT: tissue Blood; for ALANINE AMINOTRANSFERASE / ALBUMIN / ALKALINE PHOSPHATASE / ASPARTATE AMINOTRANSFERASE / BLOOD UREA NITROGEN / CARBON DIOXIDE / CHLORIDE / CHOLESTEROL / CREATINE PHOSPHOKINASE / CREATININE / GLUCOSE / LACTATE DEHYDROGENASE / LIPASE / PHOSPHORUS / POTASSIUM / SODIUM / TOTAL BILIRUBIN / TOTAL PROTEIN / URIC ACID: tissue Plasma
[1] = 100 mg/kg, 120 h, dose level Low, time 5 day
[2] = 2500 mg/kg, 72 h, dose level High, time 3 day
[3] = 2500 mg/kg, 120 h, dose level High, time 5 day

For COC1=C(OC)C(=O)C(CCCCCCCCCCO)=C(C)C1=O [IDEBENONE], the “ABSOLUTE BASOPHIL” value [1] was 0 CELLS/uL, the “ABSOLUTE EOSINOPHIL” value [1] was 0 CELLS/uL and the “ABSOLUTE LYMPHOCYTE” value [1] was 14055 CELLS/uL. For the same compound, the “ABSOLUTE MONOCYTE” value [1] was 144.33 CELLS/uL, the “ABSOLUTE SEGMENTED NEUTROPHIL” value [1] was 1000.67 CELLS/uL and the BASOPHIL [1] was 0%. For the same compound, the EOSINOPHIL [1] was 0%, the “ERYTHROCYTE COUNT” value [1] was 5.62 x10E6/uL and the HEMATOCRIT [1] was 35.7%. For the same compound, the HEMOGLOBIN [1] was 14.47 G/DL, the “LEUKOCYTE COUNT” value [1] was 15.2 x10E3/uL and the LYMPHOCYTE [1] was 92.33%. The “MEAN CORPUSCULAR HEMOGLOBIN” value [1] was 25.8 pg, the “MEAN CORPUSCULAR HEMOGLOBIN CONCENTRATION” value [1] was 40.57 G/DL and the “MEAN CORPUSCULAR VOLUME” value [1] was 63.63 fL. The MONOCYTE [1] was 1%, the NEUTROPHIL [1] was 6.67% and the “NUCLEATED RED BLOOD CELLS” value [1] was 0.33 /100WBC. For the same compound, the “PLATELET COUNT” value [1] was 1018.67 x10E3/uL, the “ALANINE AMINOTRANSFERASE” value [1] was 63.67 u/L and the ALBUMIN [1] was 4.47 G/DL. The “ALKALINE PHOSPHATASE” value [1] was 410 u/L, the “ASPARTATE AMINOTRANSFERASE” value [1] was 93 u/L and the “BLOOD UREA NITROGEN” value [1] was 16 mg/dL. For the same compound, the “CARBON DIOXIDE” value [1] was 32.33 mmol/L, the CHLORIDE [1] was 102.67 MEQ/L and the CHOLESTEROL [1] was 71.67 mg/dL. For the same compound, the “CREATINE PHOSPHOKINASE” value [1] was 369.33 u/L, the CREATININE [1] was 0.13 mg/dL and the GLUCOSE [1] was 152.33 mg/dL. The “LACTATE DEHYDROGENASE” value [1] was 136 u/L, the LIPASE [1] was 10.33 u/L and the PHOSPHORUS [1] was 11.63 mg/dL. For the same compound, the POTASSIUM [1] was 6.29 MEQ/L, the SODIUM [1] was 145.4 MEQ/L and the “TOTAL BILIRUBIN” value [1] was 0.13 mg/dL. The “TOTAL PROTEIN” value [1] was 6.13 G/DL, the “URIC ACID” value [1] was 1.03 mg/dL and the “ABSOLUTE BASOPHIL” value [2] was 0 CELLS/uL. For the same compound, the “ABSOLUTE EOSINOPHIL” value [2] was 0 CELLS/uL, the “ABSOLUTE LYMPHOCYTE” value [2] was 12762.67 CELLS/uL and the “ABSOLUTE MONOCYTE” value [2] was 85.33 CELLS/uL. For the same compound, the “ABSOLUTE SEGMENTED NEUTROPHIL” value [2] was 1385.33 CELLS/uL, the BASOPHIL [2] was 0% and the EOSINOPHIL [2] was 0%. For the same compound, the “ERYTHROCYTE COUNT” value [2] was 5.73 x10E6/uL, the HEMATOCRIT [2] was 36.83% and the HEMOGLOBIN [2] was 14 G/DL. For the same compound, the “LEUKOCYTE COUNT” value [2] was 14.23 x10E3/uL, the LYMPHOCYTE [2] was 89.33% and the “MEAN CORPUSCULAR HEMOGLOBIN” value [2] was 24.43 pg. For the same compound, the “MEAN CORPUSCULAR HEMOGLOBIN CONCENTRATION” value [2] was 38 G/DL, the “MEAN CORPUSCULAR VOLUME” value [2] was 64.3 fL and the MONOCYTE [2] was 0.67%. The NEUTROPHIL [2] was 10%, the “NUCLEATED RED BLOOD CELLS” value [2] was 0.33 /100WBC and the “PLATELET COUNT” value [2] was 1207.33 x10E3/uL. For the same compound, the “ALANINE AMINOTRANSFERASE” value [2] was 63.67 u/L, the ALBUMIN [2] was 4.23 G/DL and the “ALKALINE PHOSPHATASE” value [2] was 312.33 u/L. The “ASPARTATE AMINOTRANSFERASE” value [2] was 80.67 u/L, the “BLOOD UREA NITROGEN” value [2] was 13.67 mg/dL and the “CARBON DIOXIDE” value [2] was 32.33 mmol/L. The CHLORIDE [2] was 103.67 MEQ/L, the CHOLESTEROL [2] was 71.33 mg/dL and the “CREATINE PHOSPHOKINASE” value [2] was 242.67 u/L. The CREATININE [2] was 0.15 mg/dL, the GLUCOSE [2] was 157.67 mg/dL and the “LACTATE DEHYDROGENASE” value [2] was 80.67 u/L. The LIPASE [2] was 11 u/L, the PHOSPHORUS [2] was 10.1 mg/dL and the POTASSIUM [2] was 6.3 MEQ/L. The SODIUM [2] was 144.83 MEQ/L, the “TOTAL BILIRUBIN” value [2] was 0.17 mg/dL and the “TOTAL PROTEIN” value [2] was 5.33 G/DL. For the same compound, the “URIC ACID” value [2] was 1.27 mg/dL, the “ABSOLUTE BASOPHIL” value [3] was 0 CELLS/uL and the “ABSOLUTE EOSINOPHIL” value [3] was 79.33 CELLS/uL. For the same compound, the “ABSOLUTE LYMPHOCYTE” value [3] was 11851 CELLS/uL, the “ABSOLUTE MONOCYTE” value [3] was 40.67 CELLS/uL and the “ABSOLUTE SEGMENTED NEUTROPHIL” value [3] was 1262.33 CELLS/uL. For the same compound, the BASOPHIL [3] was 0%, the EOSINOPHIL [3] was 0.67% and the “ERYTHROCYTE COUNT” value [3] was 5.54 x10E6/uL. For the same compound, the HEMATOCRIT [3] was 33.87%, the HEMOGLOBIN [3] was 13.77 G/DL and the “LEUKOCYTE COUNT” value [3] was 13.23 x10E3/uL. For the same compound, the LYMPHOCYTE [3] was 89.33%, the “MEAN CORPUSCULAR HEMOGLOBIN” value [3] was 24.87 pg and the “MEAN CORPUSCULAR HEMOGLOBIN CONCENTRATION” value [3] was 40.67 G/DL. The “MEAN CORPUSCULAR VOLUME” value [3] was 61.17 fL, the MONOCYTE [3] was 0.33% and the NEUTROPHIL [3] was 9.67%. The “NUCLEATED RED BLOOD CELLS” value [3] was 0 /100WBC, the “PLATELET COUNT” value [3] was 1402 x10E3/uL and the “ALANINE AMINOTRANSFERASE” value [3] was 63 u/L. The ALBUMIN [3] was 4.47 G/DL, the “ALKALINE PHOSPHATASE” value [3] was 280.33 u/L and the “ASPARTATE AMINOTRANSFERASE” value [3] was 108 u/L. For the same compound, the “BLOOD UREA NITROGEN” value [3] was 18.33 mg/dL, the “CARBON DIOXIDE” value [3] was 30 mmol/L and the CHLORIDE [3] was 101.33 MEQ/L. The CHOLESTEROL [3] was 63.33 mg/dL, the “CREATINE PHOSPHOKINASE” value [3] was 512 u/L and the CREATININE [3] was 0.19 mg/dL. The GLUCOSE [3] was 146.67 mg/dL, the “LACTATE DEHYDROGENASE” value [3] was 149.33 u/L and the LIPASE [3] was 8.67 u/L. For the same compound, the PHOSPHORUS [3] was 9.97 mg/dL, the POTASSIUM [3] was 6.03 MEQ/L and the SODIUM [3] was 145.03 MEQ/L. The “TOTAL BILIRUBIN” value [3] was 0.23 mg/dL, the “TOTAL PROTEIN” value [3] was 6.1 G/DL and the “URIC ACID” value [3] was 0.9 mg/dL.
